From patent publication US20260376293A1, “METHODS FOR STUDYING GPR158 PHARMACOLOGY AND IDENTIFICATION OF ITS LIGANDS” (UNIVERSITY OF FLORIDA RESEARCH FOUNDATION, INCORPORATED, priority 2022, published 2026)

Legend:
[1] = test system: GPR158 R173A, E271A, and Y269A mutants; test: GAP BRET assay on GPR158 mutants defective in glycine binding; type: cell-based, human
Source text: FIGS. 11A-11G. Probing Cache domain of GPR158 as a ligand binding site A) Computational docking of glycine into putative ligand binding pocket on GPR158 Cache domain. Glycine and directly interacting residues are shown as sticks. Hydrogen bonds and van der Waals interactions are shown as dotted lines. B) Diagram showing interactions in the docked model of glycine against GPR158 Cache domain. Hydrogen bonds are shown as dashed lines, van der Waals interactions are shown as intersecting semicircles, and the secondary structural context of Ser266 and Tyr269 is shown as an arc. Dagger indicates a residue implicated in glycine binding in 11A. […] Error bars are mean±s.e.m. of 3 independent experiments in triplicate. *p<0.05, **p<0.01, ***p<0.001, ****p<0.0001, ns=p>0.05, two-way ANOVA Columns with no fill (Ctrl), columns with angled-line fill (Glycine) E) Quantification of glycine inhibitory effect on kGAP normalized to the effect seen with WT receptor. […]
Cellular measurements of BRET between Venus-Gβ1γ2 and masGRK3ct-Nluc were performed to examine GAP activity of RGS protein in living cells (described in detail in Masuho et al., 2015 (40)). […] The BRET signal was determined by calculating the ratio of the light emitted by the Venus-Gβ1γ2 (535 nm with a 30 nm band path width) over the light emitted by the masGRK3ct-Nluc (475 nm with a 30 nm band path width). […]

GPR158 S266A mutant = target: T1, GPR158 S266A mutant (Homo sapiens, UniProt Q5T848, S266A); test: Radioligand binding assay on GPR158 mutant S266A
T1 construct: RGS7/Gβ5 co-expressed in the GAP BRET row only
T1 sequence (Q5T848 24-1215 S266A): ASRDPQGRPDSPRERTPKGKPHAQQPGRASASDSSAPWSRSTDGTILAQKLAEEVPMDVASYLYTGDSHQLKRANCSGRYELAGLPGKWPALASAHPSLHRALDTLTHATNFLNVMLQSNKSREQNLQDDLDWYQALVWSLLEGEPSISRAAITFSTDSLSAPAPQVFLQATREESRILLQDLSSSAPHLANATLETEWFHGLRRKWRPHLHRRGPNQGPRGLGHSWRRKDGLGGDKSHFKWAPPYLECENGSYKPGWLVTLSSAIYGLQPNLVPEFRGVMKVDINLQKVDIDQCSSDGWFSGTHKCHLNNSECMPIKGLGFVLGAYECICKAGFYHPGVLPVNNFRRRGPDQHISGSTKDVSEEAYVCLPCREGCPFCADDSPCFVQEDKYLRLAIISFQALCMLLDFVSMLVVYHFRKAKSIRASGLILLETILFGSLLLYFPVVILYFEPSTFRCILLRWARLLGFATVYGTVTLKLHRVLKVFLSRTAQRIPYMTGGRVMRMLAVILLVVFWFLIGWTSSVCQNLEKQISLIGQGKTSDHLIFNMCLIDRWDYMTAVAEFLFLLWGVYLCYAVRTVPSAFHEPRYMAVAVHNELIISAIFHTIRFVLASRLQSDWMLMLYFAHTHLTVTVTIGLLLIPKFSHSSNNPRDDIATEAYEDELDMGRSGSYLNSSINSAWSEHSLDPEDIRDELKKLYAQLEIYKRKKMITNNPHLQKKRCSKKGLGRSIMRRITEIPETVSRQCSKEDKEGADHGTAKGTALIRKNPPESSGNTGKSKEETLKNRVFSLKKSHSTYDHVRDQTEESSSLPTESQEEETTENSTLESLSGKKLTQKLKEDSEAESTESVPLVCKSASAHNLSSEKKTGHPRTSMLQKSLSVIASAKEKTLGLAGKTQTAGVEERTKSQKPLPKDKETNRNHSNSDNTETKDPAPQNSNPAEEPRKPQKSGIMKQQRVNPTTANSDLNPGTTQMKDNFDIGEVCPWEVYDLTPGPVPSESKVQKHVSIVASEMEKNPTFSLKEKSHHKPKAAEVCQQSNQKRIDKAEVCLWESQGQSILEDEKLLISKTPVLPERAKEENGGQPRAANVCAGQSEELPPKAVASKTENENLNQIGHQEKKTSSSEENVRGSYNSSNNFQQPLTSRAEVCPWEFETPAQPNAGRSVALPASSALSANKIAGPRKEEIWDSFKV
Source text: FIGS. 11A-11G. Probing Cache domain of GPR158 as a ligand binding site A) Computational docking of glycine into putative ligand binding pocket on GPR158 Cache domain. Glycine and directly interacting residues are shown as sticks. Hydrogen bonds and van der Waals interactions are shown as dotted lines. B) Diagram showing interactions in the docked model of glycine against GPR158 Cache domain. Hydrogen bonds are shown as dashed lines, van der Waals interactions are shown as intersecting semicircles, and the secondary structural context of Ser266 and Tyr269 is shown as an arc. Dagger indicates a residue implicated in glycine binding in 11A. C) Radioligand binding assay of ^3H-glycine in cells expressing GPR158 mutants. Data shown mean±s.e.m. of 3 independent experiments, *p<0.05, ns=p>0.05 one-way ANOVA. D) Functional evaluation of GPR158 mutants in GAP BRET assay. Error bars are mean±s.e.m. of 3 independent experiments in triplicate. *p<0.05, **p<0.01, ***p<0.001, ****p<0.0001, ns=p>0.05, two-way ANOVA Columns with no fill (Ctrl), columns with angled-line fill (Glycine) E) Quantification of glycine inhibitory effect on kGAP normalized to the effect seen with WT receptor. […]
Whole cell binding was performed using cDNA of GPR158-venus or each GPR158-venus mutant or empty pcDNA3.1+ for ctrl cells. […] Finally radioactivity was measured using the liquid scintillation analyzer Tri-Carb 4910 TR.

- glycine binding (GPR158 S266A mutant): normally bind glycine
Structure (SMILES): NCC(=O)O [glycine]
- glycine inhibition of GAP activity of RGS7/Gβ5 [1]: lost an ability to inhibit the GAP-activity of RGS7/Gβ5
